US20250082624A1, “METHODS OF TREATING COGNITIVE IMPAIRMENT” (NeuroTherapia, Inc., priority 2023, published 2025)
Where two headings read alike, the source gives them in different places.

Test: Phase 1b MAD plasma pharmacokinetics, non-compartmental analysis
Format: in vivo, human
Details: human, plasma, po
Text: Methods: All study procedures were approved by the IRB, and informed consent was obtained. Three cohorts of volunteers 45-80 years of age with well-controlled comorbidities (NOAD) and one cohort of AD patients diagnosed with cognitive impairment consistent with prodromal AD per International Working Group criteria or mild AD per National Institute on Aging—Alzheimer's Association criteria (n=6 active, 2 placebo per cohort) were enrolled. Participants were admitted to the study site for the duration of the dosing and returned 7-12 days after the last dose for a safety visit. Participants received NTRX-07 (10, 30, or 90 mg) or a placebo in a double-blinded randomization orally once daily for seven days. Subjects were assessed for changes in vital signs, including maneuvers to induce lightheadedness, electrocardiograms, 24-hour electroencephalograms (EEG), and safety laboratory studies. The second cohort returned and received a single repeat dose after a standard high-fat meal. The AD cohort also underwent cognitive testing and had blood samples for biomarkers drawn. Subjects had PK sampling done after the first and final dose of the study drug. An independent safety review committee conducted a blinded safety review of adverse events and plasma levels between each cohort.
All subjects had PK sampling done after the first and final dose of the study drug.
(§1) Raw bioanalytical data were received from Nuvisan following analysis of plasma samples from each of four cohorts. PK parameters were calculated by noncompartmental analysis using standard equations. Specifically, area under the plasma concentration versus time curve (AUC) was calculated using the trapezoid rule. Maximal plasma concentration (Cmax) and time of maximal plasma concentration (Tmax) were taken directly from the data. Clearance divided by bioavailability (Cl/F) was calculated as the dose divided by the AUC. Apparent volume of distribution over bioavailability (Vd/F) was calculated as dose divided by Cmax.
With oral administration of the dose every 24 hours for 7 days, blood samples were taken over a 24-hour interval on Days 1 and 7 and before and after dosing on Day 3.
as §1, with “on Oct. 27, 2022. […]” for “following analysis of plasma samples from each of four cohorts. PK parameters were calculated by noncompartmental analysis using standard equations.”
as §1, with “on Nov. 24, 2022. […]” for “following analysis of plasma samples from each of four cohorts. PK parameters were calculated by noncompartmental analysis using standard equations.”
as §1, with “on Dec. 19, 2022. […]” for “following analysis of plasma samples from each of four cohorts. PK parameters were calculated by noncompartmental analysis using standard equations.”
Raw bioanalytical data were received from Nuvisan on Jun. 30, 2023. […] Specifically, area under the plasma concentration versus time curve (AUC) was calculated using the trapezoid rule. Maximal plasma concentration (Cmax) and time of maximal plasma concentration (Tmax) were taken directly from the data. […]

CC1(Cc2ccccc2)COc2cc(C(=O)N3CCCCC3)ccc21 (centres unmarked) [NTRX-07, 3-benzyl-3-methyl-2,3-dihydrobenzofuran-6-carboxylic acid-piperidine amide]
Cmax (10 mg, Table 10: Cohort A, 10 mg QD oral, Day 7, mean ± S.D., read-out: Cmax): 37.7 ± 15.9 ng/mL
Tmax (10 mg, Table 10: Cohort A, 10 mg QD oral, Day 7, mean ± S.D., read-out: Tmax): 48 ± 18 min
Vd/F (10 mg, Table 10: Cohort A, 10 mg QD oral, Day 7, mean ± S.D., read-out: Vd/F): 307 ± 126 L
Tmax (10 mg, Table 19 (interim): Cohort A, 40 mg SDD (10 mg NTRX-07) QD oral, Day 1, individual subjects, read-out: Tmax): 30 min
AUC over 24 h (AUC0-24) (10 mg, Table 19 (interim): Cohort A, 40 mg SDD (10 mg NTRX-07) QD oral, Day 1, mean ± S.D.): 93 ± 0.9 ng·h/mL
Cmax (10 mg, Table 19 (interim): Cohort A, 40 mg SDD (10 mg NTRX-07) QD oral, Day 1, mean ± S.D., read-out: Cmax): 35.6 ± 12.8 ng/mL
Tmax (10 mg, Table 19 (interim): Cohort A, 40 mg SDD (10 mg NTRX-07) QD oral, Day 1, mean ± S.D., read-out: Tmax): 42 ± 18 min
Vd/F (10 mg, Table 19 (interim): Cohort A, 40 mg SDD (10 mg NTRX-07) QD oral, Day 1, mean ± S.D., read-out: Vd/F): 1280 ± 544 L
Tmax (10 mg, Table 20 (interim): Cohort A, 40 mg SDD (10 mg NTRX-07) QD oral, Day 7, individual subjects, read-out: Tmax): 30 min
AUC over 24 h (AUC0-24) (10 mg, Table 20 (interim): Cohort A, 40 mg SDD (10 mg NTRX-07) QD oral, Day 7, mean ± S.D.): 94.4 ± 66.8 ng·h/mL
Cmax (10 mg, Table 20 (interim): Cohort A, 40 mg SDD (10 mg NTRX-07) QD oral, Day 7, mean ± S.D., read-out: Cmax): 37.7 ± 15.9 ng/mL
Tmax (10 mg, Table 20 (interim): Cohort A, 40 mg SDD (10 mg NTRX-07) QD oral, Day 7, mean ± S.D., read-out: Tmax): 48 ± 18 min
Vd/F (10 mg, Table 20 (interim): Cohort A, 40 mg SDD (10 mg NTRX-07) QD oral, Day 7, mean ± S.D., read-out: Vd/F): 1230 ± 506 L
AUC(0-t) (30 mg, Cohort B Fed, single 30 mg oral dose after high-fat meal, mean ± SD, read-out: Average of AUC24 h): 390 ± 280 ng·h/mL
Cmax (30 mg, Cohort B Fed, single 30 mg oral dose after high-fat meal, mean ± SD, read-out: Average of Cmax): 60 ± 37 ng/mL
Tmax (30 mg, Cohort B Fed, single 30 mg oral dose after high-fat meal, mean ± SD, read-out: Average of Tmax): 144 ± 108 min
Vd/F (30 mg, Cohort B Fed, single 30 mg oral dose after high-fat meal, mean ± SD, read-out: Average of Vd/F): 699 ± 424 L
AUC(0-t) (30 mg, Cohort B healthy, 30 mg QD oral, Day 1, mean ± SD, read-out: Average of AUC24 h): 328 ± 213 ng·h/mL
Cmax (30 mg, Cohort B healthy, 30 mg QD oral, Day 1, mean ± SD, read-out: Average of Cmax): 109 ± 58 ng/mL
Tmax (30 mg, Cohort B healthy, 30 mg QD oral, Day 1, mean ± SD, read-out: Average of Tmax): 54 ± 30 min
Vd/F (30 mg, Cohort B healthy, 30 mg QD oral, Day 1, mean ± SD, read-out: Average of Vd/F): 349 ± 175 L
AUC(0-t) (30 mg, Cohort B healthy, 30 mg QD oral, Day 7, mean ± SD, read-out: Average of AUC24 h): 236 ± 186 ng·h/mL
Cmax (30 mg, Cohort B healthy, 30 mg QD oral, Day 7, mean ± SD, read-out: Average of Cmax): 120 ± 79 ng/mL
Tmax (30 mg, Cohort B healthy, 30 mg QD oral, Day 7, mean ± SD, read-out: Average of Tmax): 36 ± 12 min
Vd/F (30 mg, Cohort B healthy, 30 mg QD oral, Day 7, mean ± SD, read-out: Average of Vd/F): 391 ± 235 L
AUC(0-t) (30 mg, Table 11: Cohort B, 30 mg QD oral, Day 1, mean ± S.D., read-out: AUClast): 328 ± 213 ng·h/mL
Cmax (30 mg, Table 11: Cohort B, 30 mg QD oral, Day 1, mean ± S.D., read-out: Cmax): 109 ± 58 ng/mL
Tmax (30 mg, Table 11: Cohort B, 30 mg QD oral, Day 1, mean ± S.D., read-out: Tmax): 54 ± 30 min
Vd/F (30 mg, Table 11: Cohort B, 30 mg QD oral, Day 1, mean ± S.D., read-out: Vd/F): 349 ± 175 L
Tmax (30 mg, Table 12: Cohort B, 30 mg QD oral, Day 7, individual subjects, read-out: Tmax): 30 min
AUC(0-t) (30 mg, Table 12: Cohort B, 30 mg QD oral, Day 7, mean ± S.D., read-out: AUClast): 236 ± 186 ng·h/mL
Cmax (30 mg, Table 12: Cohort B, 30 mg QD oral, Day 7, mean ± S.D., read-out: Cmax): 120 ± 79 ng/mL
Tmax (30 mg, Table 12: Cohort B, 30 mg QD oral, Day 7, mean ± S.D., read-out: Tmax): 36 ± 12 min
Vd/F (30 mg, Table 12: Cohort B, 30 mg QD oral, Day 7, mean ± S.D., read-out: Vd/F): 391 ± 234 L
AUC(0-t) (30 mg, Table 13: Cohort B Fed, 30 mg oral, fed state, mean ± S.D., read-out: AUClast): 390 ± 280 ng·h/mL
Cmax (30 mg, Table 13: Cohort B Fed, 30 mg oral, fed state, mean ± S.D., read-out: Cmax): 60 ± 37 ng/mL
Tmax (30 mg, Table 13: Cohort B Fed, 30 mg oral, fed state, mean ± S.D., read-out: Tmax): 144 ± 108 min
Vd/F (30 mg, Table 13: Cohort B Fed, 30 mg oral, fed state, mean ± S.D., read-out: Vd/F): 699 ± 424 L
AUC(0-t) (90 mg, Cohort C healthy, 90 mg QD oral, Day 1, mean ± SD, read-out: Average of AUC24 h): 1270 ± 509 ng·h/mL
Cmax (90 mg, Cohort C healthy, 90 mg QD oral, Day 1, mean ± SD, read-out: Average of Cmax): 400 ± 202 ng/mL
Tmax (90 mg, Cohort C healthy, 90 mg QD oral, Day 1, mean ± SD, read-out: Average of Tmax): 138 ± 132 min
Vd/F (90 mg, Cohort C healthy, 90 mg QD oral, Day 1, mean ± SD, read-out: Average of Vd/F): 337 ± 316 L
AUC(0-t) (90 mg, Cohort C healthy, 90 mg QD oral, Day 7, mean ± SD, read-out: Average of AUC24 h): 741 ± 357 ng·h/mL
Cmax (90 mg, Cohort C healthy, 90 mg QD oral, Day 7, mean ± SD, read-out: Average of Cmax): 189 ± 95 ng/mL
Tmax (90 mg, Cohort C healthy, 90 mg QD oral, Day 7, mean ± SD, read-out: Average of Tmax): 78 ± 60 min
AUC(0-t) (90 mg, Cohort D AD patients, 90 mg QD oral, Day 1, mean ± SD, read-out: Average of AUC24 h): 1560 ± 605 ng·h/mL
Cmax (90 mg, Cohort D AD patients, 90 mg QD oral, Day 1, mean ± SD, read-out: Average of Cmax): 478 ± 154 ng/mL
Tmax (90 mg, Cohort D AD patients, 90 mg QD oral, Day 1, mean ± SD, read-out: Average of Tmax): 66 ± 36 min
Vd/F (90 mg, Cohort D AD patients, 90 mg QD oral, Day 1, mean ± SD, read-out: Average of Vd/F): 211 ± 90 L
AUC(0-t) (90 mg, Cohort D AD patients, 90 mg QD oral, Day 7, mean ± SD, read-out: Average of AUC24 h): 806 ± 196 ng·h/mL
